Experimental data from ChEMBL document CHEMBL1201862, “PubChem BioAssay data set” (2004).
Calls of active or inactive are those of the source.

What was measured:
Cytochrome P450 2C9 = Cytochrome P450 2C9 (Homo sapiens, UniProt P11712)
[1] = target: Corticotropin-releasing factor receptor 2/Corticotropin-releasing factor-binding protein (Homo sapiens, UniProt Q13324+P24387); experiment: activators of CRF receptor 2 with binding protein – uHTS hits, confirmation (AID 602473); format: functional; conditions: read-out: EC50_Mean
Corticotropin-releasing factor receptor 2/Corticotropin-releasing factor-binding protein, sequence (Q13324 whole entry): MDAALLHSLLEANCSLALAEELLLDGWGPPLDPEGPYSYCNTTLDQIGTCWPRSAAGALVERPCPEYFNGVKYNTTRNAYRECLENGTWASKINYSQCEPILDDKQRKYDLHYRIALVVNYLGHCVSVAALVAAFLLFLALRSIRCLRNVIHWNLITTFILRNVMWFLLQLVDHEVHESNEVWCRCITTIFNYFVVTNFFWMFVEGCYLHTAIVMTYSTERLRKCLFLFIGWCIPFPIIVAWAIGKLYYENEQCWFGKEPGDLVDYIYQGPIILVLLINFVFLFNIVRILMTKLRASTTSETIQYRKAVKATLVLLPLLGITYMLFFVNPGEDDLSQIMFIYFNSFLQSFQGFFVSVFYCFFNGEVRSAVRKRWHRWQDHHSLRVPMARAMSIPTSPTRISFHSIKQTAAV
Corticotropin-releasing factor receptor 2/Corticotropin-releasing factor-binding protein, sequence (P24387 whole entry): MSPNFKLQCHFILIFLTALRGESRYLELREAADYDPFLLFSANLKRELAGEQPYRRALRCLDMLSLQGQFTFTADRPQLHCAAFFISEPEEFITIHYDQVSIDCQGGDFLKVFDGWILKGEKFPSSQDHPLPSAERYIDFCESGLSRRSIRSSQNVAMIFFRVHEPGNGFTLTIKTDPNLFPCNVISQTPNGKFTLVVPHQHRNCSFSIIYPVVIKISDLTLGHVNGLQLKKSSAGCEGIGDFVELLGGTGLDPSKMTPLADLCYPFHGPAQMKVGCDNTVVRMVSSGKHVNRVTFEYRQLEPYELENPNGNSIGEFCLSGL

[2] = target: T1, Zinc finger protein mex-5 (Caenorhabditis elegans, UniProt Q9XUB2); experiment: potency of MEX-5 RNA-binding blockers – biochemical, C. elegans, fluorescence polarization, dose response (AID 1960)
T1 sequence (Q9XUB2 whole entry): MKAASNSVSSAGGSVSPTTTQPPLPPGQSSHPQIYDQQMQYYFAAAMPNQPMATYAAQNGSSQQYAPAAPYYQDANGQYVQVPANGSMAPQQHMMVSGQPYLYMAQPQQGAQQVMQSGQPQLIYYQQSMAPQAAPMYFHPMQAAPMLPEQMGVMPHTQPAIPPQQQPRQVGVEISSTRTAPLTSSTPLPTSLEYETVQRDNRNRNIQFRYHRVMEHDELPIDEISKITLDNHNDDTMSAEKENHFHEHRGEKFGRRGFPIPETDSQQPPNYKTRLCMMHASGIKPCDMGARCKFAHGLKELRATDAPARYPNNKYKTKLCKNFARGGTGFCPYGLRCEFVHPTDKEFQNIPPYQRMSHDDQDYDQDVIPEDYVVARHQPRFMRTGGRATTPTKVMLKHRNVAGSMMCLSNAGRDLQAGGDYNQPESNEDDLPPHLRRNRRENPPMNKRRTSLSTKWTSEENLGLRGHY

[3] = target: T2, RNA-binding protein pos-1 (Caenorhabditis elegans, UniProt G5EF15); experiment: disruptors of C. elegans POS-1 RNA interaction – biochemical, fluorescence polarization, dose response (AID 1964);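 note: purified POS-1 fused to maltose binding protein made in E. coli; potency of compounds blocking POS-1 binding to fluorescent RNA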
T2 sequence (G5EF15 whole entry): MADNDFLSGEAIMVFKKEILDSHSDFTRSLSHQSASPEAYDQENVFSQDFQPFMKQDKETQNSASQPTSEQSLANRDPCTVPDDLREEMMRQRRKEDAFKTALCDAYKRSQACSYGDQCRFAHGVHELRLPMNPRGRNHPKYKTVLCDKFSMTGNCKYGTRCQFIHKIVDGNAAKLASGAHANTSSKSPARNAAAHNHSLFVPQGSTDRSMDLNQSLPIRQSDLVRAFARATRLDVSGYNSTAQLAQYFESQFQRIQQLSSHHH

Cytochrome P450 3A4 = Cytochrome P450 3A4 (Homo sapiens, UniProt P08684);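 note: CYP3A4 tested as one member of a cytochrome P450 panel screen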
Cytochrome P450 3A4, sequence (P08684 whole entry): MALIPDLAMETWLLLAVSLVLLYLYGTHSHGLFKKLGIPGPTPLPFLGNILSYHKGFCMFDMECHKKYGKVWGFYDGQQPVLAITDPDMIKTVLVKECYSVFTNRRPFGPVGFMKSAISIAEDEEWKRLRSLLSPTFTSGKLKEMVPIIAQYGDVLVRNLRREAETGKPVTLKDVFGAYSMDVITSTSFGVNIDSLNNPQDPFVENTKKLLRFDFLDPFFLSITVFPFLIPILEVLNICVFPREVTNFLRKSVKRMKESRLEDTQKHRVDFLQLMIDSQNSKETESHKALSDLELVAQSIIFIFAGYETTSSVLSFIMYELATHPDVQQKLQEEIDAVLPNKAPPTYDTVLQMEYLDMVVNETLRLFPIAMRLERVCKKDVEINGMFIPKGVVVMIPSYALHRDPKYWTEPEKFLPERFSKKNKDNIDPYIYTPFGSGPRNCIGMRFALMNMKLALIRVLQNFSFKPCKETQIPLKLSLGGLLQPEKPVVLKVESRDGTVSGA

CAAX prenyl protease 2 = CAAX prenyl protease 2 (Homo sapiens, UniProt Q9Y256); experiment: inhibition of Ras-converting CAAX protease Rce1 – biochemical, yeast membranes, quenched-peptide fluorescence, cherry-pick, dose response (AID 588849)
CAAX prenyl protease 2, sequence (Q9Y256 whole entry): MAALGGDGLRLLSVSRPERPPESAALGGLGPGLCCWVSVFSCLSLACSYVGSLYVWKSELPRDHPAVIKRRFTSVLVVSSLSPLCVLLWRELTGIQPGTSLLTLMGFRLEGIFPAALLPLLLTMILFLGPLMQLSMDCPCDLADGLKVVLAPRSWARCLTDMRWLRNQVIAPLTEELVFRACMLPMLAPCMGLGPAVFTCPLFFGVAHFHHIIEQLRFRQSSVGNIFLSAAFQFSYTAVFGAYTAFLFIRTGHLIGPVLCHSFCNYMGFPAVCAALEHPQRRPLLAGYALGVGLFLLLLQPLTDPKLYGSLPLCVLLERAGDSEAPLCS

[4] = reduction of Shn3 3'UTR-driven luciferase in osteoblasts – cell-based, Clone20 osteoblasts, firefly luciferase, cherry-picked, dose response (AID 624132); format: functional;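 note: firefly luciferase luminescence from reporter carrying the Shn3 3'UTR in osteoblasts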
[5] = loss of viability in HepG2 cells – cell-based, CellTiter-Glo, cherry-picked, cytotoxicity control for Shn3 inhibitor project, dose response (AID 624134); format: functional
[6] = target: T3, Microphthalmia-associated transcription factor (Homo sapiens, UniProt O75030); experiment: reducers of TRPM1 reporter luminescence, concentration series – cell-based, SK-MEL-5, cherry-picked, set 3, MITF inhibitor project, dose response (AID 493073); format: functional;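 note: SK-MEL-5 melanoma cells with luciferase driven by the MITF target TRPM1 promoter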
T3 sequence (O75030 whole entry): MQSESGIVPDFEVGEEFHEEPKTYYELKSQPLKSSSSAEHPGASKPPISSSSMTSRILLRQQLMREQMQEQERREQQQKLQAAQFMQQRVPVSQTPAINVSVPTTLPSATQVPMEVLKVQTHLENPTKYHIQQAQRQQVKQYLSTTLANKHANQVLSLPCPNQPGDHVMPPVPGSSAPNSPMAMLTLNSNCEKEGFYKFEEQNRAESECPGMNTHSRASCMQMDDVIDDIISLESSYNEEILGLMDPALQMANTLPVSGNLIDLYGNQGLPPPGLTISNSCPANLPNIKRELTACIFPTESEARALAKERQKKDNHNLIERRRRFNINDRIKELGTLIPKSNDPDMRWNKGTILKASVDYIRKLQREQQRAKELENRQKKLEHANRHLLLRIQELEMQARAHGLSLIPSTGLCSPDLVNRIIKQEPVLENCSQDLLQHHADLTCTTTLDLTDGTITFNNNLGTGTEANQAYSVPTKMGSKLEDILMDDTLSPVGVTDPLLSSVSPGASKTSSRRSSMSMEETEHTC

A-375 [7] = experiment: proliferation inhibition in MITF-low A375 cells – cell-based, cherry-pick samples, set 2, counter-screen for MITF modulator project, dose response (AID 540335); format: functional; conditions: Homo sapiens
[8] = Luminescence Cell-Based Dose Retest to Confirm Inhibitors of Cancer Stem Cells. [Related pubchem assays (depositor defined):AID2717, AID2721]; format: functional; conditions: Homo sapiens
[9] = Trypanosoma cruzi growth suppression in host cells – NIH3T3 host cells, beta-gal luminescence, confirmation (AID 2044); format: functional, cell-based;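 note: intracellular parasites grown in NIH/3T3 mouse fibroblasts as host cells; luminescent beta-galactosidase reporter signal from transgenic T. cruzi replicating inside host cells; inhibitors lower the luminescence signal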
A-375 [10] = experiment: MITF: Counter assay: A375 proliferation Measured in Cell-Based System Using Plate Reader - 2084-03_Inhibitor_Dose_DryPowder_Activity. [Related pubchem assays (depositor defined):AID488944]; format: functional; conditions: Homo sapiens
[11] = NIH3T3 cell viability loss – ATP luminescence, mouse fibroblasts, counter-screen, dose response (AID 2010); format: functional, cell-based;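 note: cells exposed to compound for about 90 hours before reading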
[12] = non-specific 3'UTR reporter inhibition in Clone20-Shn3RL – cell-based, Renilla luciferase, cherry-picked, counter-screen for Shn3 inhibitor project, dose response (AID 624133); format: functional
Phospholipase D2 = Phospholipase D2 (Homo sapiens, UniProt O14939); experiment: cellular phospholipase D2 inhibition IC50 – cell-based, dose response (AID 602147); format: functional;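 note: cellular assay in HEK293 cells overexpressing GFP-tagged PLD2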
Phospholipase D1 = Phospholipase D1 (Homo sapiens, UniProt Q13393); experiment: cellular phospholipase D1 inhibition IC50 – cell-based, dose response (AID 602151); format: functional;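 note: cellular PLD1 assay in Calu-1 cells stimulated with PMA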
Aurora kinase B = Aurora kinase B (Homo sapiens, UniProt Q96GD4); format: functional
Aurora kinase B, sequence (Q96GD4 whole entry): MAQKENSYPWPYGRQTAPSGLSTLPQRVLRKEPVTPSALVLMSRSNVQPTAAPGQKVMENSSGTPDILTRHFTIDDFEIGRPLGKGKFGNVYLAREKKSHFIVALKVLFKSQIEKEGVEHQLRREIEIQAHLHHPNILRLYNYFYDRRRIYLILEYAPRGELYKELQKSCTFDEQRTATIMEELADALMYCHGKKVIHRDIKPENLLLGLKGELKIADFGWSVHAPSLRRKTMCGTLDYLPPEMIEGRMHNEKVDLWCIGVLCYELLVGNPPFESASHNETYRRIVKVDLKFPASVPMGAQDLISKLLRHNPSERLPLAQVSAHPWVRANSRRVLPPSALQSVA

[13] = target: Calcium/calmodulin-dependent protein kinase type II subunit beta (Homo sapiens, UniProt Q13554); format: functional
[14] = target: Protein kinase C delta type (Homo sapiens, UniProt Q05655); format: functional
[15] = target: Calcium/calmodulin-dependent protein kinase type II subunit gamma (Homo sapiens, UniProt Q13555); format: functional
Calcium/calmodulin-dependent protein kinase type II subunit gamma, sequence (Q13555 whole entry): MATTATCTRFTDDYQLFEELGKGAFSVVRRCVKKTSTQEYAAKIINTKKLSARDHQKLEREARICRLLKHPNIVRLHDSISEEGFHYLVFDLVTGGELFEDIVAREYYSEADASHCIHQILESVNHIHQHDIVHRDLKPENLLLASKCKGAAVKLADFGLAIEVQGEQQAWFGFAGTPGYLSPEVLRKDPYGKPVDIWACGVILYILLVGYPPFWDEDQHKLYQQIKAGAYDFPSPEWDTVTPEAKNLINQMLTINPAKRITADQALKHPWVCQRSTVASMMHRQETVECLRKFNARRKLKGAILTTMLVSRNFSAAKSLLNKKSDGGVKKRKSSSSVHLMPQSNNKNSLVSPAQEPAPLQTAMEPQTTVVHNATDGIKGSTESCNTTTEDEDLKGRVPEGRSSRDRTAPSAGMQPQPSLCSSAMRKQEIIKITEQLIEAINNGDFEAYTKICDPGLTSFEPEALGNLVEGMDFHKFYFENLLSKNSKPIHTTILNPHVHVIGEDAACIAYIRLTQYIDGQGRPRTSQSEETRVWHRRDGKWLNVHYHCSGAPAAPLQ

[16] = target: Serine/threonine-protein kinase pim-1 (Homo sapiens, UniProt P11309); format: functional
Serine/threonine-protein kinase pim-1, sequence (P11309 whole entry): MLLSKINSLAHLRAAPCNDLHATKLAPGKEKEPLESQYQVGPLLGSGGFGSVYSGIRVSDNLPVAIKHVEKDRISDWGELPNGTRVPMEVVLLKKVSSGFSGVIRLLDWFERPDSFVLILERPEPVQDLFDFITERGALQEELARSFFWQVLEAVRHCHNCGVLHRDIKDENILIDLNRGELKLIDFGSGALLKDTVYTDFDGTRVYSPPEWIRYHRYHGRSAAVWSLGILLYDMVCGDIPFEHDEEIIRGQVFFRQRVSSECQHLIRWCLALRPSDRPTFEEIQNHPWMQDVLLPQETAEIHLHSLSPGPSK

[17] = target: Interleukin-1 receptor-associated kinase 4 (Homo sapiens, UniProt Q9NWZ3); format: functional
[18] = target: Homeodomain-interacting protein kinase 2 (Homo sapiens, UniProt Q9H2X6); format: functional;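 note: measured within a kinome-wide kinase profiling panel, HIPK2 being one panel member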
Homeodomain-interacting protein kinase 2, sequence (Q9H2X6 whole entry): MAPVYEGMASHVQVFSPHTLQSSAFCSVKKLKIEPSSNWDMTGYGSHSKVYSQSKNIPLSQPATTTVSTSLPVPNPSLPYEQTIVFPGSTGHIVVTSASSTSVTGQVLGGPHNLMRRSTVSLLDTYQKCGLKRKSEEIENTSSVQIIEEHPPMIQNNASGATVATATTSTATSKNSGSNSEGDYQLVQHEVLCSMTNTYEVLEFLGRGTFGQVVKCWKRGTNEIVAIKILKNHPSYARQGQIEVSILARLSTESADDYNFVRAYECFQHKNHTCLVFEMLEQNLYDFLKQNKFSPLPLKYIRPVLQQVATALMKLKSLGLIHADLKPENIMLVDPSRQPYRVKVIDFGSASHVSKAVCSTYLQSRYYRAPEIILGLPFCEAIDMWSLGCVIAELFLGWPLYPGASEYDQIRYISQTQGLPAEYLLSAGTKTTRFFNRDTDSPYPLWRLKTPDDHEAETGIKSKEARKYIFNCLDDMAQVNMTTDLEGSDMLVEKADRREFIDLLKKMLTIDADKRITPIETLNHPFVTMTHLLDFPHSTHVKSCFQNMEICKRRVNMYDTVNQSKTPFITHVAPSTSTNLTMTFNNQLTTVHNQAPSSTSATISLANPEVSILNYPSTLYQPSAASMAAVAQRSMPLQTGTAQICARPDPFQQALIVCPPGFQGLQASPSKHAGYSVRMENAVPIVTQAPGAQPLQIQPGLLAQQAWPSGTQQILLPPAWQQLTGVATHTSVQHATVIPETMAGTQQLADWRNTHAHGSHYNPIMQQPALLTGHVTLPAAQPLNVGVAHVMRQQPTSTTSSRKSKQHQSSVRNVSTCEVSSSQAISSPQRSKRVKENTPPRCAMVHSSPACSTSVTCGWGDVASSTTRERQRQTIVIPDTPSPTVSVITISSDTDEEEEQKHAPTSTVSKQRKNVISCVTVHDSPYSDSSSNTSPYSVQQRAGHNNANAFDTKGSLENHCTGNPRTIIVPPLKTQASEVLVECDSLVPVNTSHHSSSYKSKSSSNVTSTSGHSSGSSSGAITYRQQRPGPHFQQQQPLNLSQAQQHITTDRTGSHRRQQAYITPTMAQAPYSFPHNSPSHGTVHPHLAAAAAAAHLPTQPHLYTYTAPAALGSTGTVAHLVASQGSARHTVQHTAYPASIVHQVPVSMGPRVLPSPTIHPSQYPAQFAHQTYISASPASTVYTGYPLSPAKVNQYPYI

[19] = target: Cell division cycle 7-related protein kinase (Homo sapiens, UniProt O00311); format: functional;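 note: value obtained from a kinome-wide kinase panel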
Cell division cycle 7-related protein kinase, sequence (O00311 whole entry): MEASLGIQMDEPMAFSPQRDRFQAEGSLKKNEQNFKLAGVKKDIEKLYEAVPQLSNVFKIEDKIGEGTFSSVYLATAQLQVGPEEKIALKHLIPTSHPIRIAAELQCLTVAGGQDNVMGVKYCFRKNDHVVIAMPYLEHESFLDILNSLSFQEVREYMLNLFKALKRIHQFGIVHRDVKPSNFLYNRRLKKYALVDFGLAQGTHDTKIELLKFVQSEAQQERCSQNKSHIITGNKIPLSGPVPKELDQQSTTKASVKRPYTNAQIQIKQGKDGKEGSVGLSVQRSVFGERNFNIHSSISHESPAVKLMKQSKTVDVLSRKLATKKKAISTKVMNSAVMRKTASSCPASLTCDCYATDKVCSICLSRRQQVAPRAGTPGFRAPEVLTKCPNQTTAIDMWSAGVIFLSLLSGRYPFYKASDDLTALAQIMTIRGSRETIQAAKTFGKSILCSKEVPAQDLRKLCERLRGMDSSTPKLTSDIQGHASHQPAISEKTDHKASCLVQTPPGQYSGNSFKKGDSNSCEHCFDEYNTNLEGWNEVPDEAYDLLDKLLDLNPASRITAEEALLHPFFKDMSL

[20] = target: cAMP-dependent protein kinase catalytic subunit alpha (Homo sapiens, UniProt P17612); format: functional
[21] = target: Dual specificity protein kinase CLK4 (Homo sapiens, UniProt Q9HAZ1); format: functional
[22] = target: Glycogen synthase kinase-3 beta (Homo sapiens, UniProt P49841); format: functional;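 note: value comes from a broad kinome profiling panel, with GSK3B as the panel member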
[23] = target: Mitogen-activated protein kinase kinase kinase kinase 4 (Homo sapiens, UniProt O95819); format: functional
[24] = target: T4, V-type proton ATPase subunit c' (Saccharomyces cerevisiae S288c, UniProt P32842); experiment: Dose Response with BCECF Assay for V-ATPase inhibitors that increase vacuolar pH, Powder Set 1.; format: functional; conditions: read-out: EC50_MICROM
T4 sequence (P32842 whole entry): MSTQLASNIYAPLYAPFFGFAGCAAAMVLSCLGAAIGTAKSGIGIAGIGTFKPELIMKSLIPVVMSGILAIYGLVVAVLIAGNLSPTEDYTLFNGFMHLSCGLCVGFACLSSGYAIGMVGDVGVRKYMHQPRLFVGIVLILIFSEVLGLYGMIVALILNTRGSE

[25] = target: T4, V-type proton ATPase subunit c'; experiment: Dose Response of Small Molecules that Regulate V-ATPase Proton Transport in Yeast using pHLuorin, Powder Set1.; format: functional; conditions: read-out: EC50_MICROM

CCCCC1(C)OC(=O)C(=Cc2ccc(N(CC)CC)cc2)C(=O)O1 (stereo unspecified)
AC50 (Cytochrome P450 2C9): inconclusive | EC50 [1]: 7.59 µM (active) | EC50 [2]: > 300 µM (not active) | EC50 [3]: > 300 µM (not active) | AC50 (Cytochrome P450 3A4): 0.126 µM (inconclusive)

Oc1ncccc1-c1nc2ccccc2n1Cc1cccc(Cl)c1
AC50 (CAAX prenyl protease 2): 5.23 µM (active)

Cc1ccccc1C(=O)N1CCN(c2ccc(NC(=O)c3ccc([N+](=O)[O-])o3)cc2)CC1
AC50 [4]: 0.864 µM (active) | AC50 [5]: 20.5 µM (active) | AC50 [6]: 6.2 µM (active) | AC50 (A-375 [7]): > 35 µM (active) | AC50 [8]: 1.8 µM (active) | EC50 [9]: 3.14 µM (active) | AC50 (A-375 [10]): > 35 µM (active) | EC50 [11]: 3.84 µM (active) | AC50 [12]: 9.76 µM (active)

C[C@@H](CN1CCC(n2c(=O)[nH]c3ccc(F)cc32)CC1)NC(=O)c1ccc(F)cc1
IC50 (Phospholipase D2): 0.3 µM (active) | IC50 (Phospholipase D1): 0.002 µM (active)

Cc1cc(C(=O)NCCOCCOCCN)ccc1-c1cccc2c(CCCOc3cccc4ccccc34)c(C(=O)O)[nH]c12
Ki (Aurora kinase B): 3.98 µM (active) | Ki [13]: 5.01 µM (active) | Ki [14]: 2.51 µM (active) | Ki [15]: 3.98 µM (active)

CC(C)(C)Oc1cc(-c2ccncc2)cc2[nH]nc(N)c12
Ki [16]: 1.58 µM (active) | Ki [17]: 0.251 µM (active) | Ki [18]: 0.398 µM (active) | Ki [19]: 0.00251 µM (active) | Ki [20]: 0.158 µM (active) | Ki [21]: 0.0126 µM (active) | Ki [22]: 0.631 µM (active) | Ki [23]: 0.251 µM (active)

COc1ccccc1N1CCN(C(=O)c2ccc([N+](=O)[O-])o2)CC1
EC50 [24]: 24.3 µM (active) | EC50 [25]: 40.5 µM (active)
